In ChEMBL document CHEMBL1124151, “21-[18F]fluoro-16 alpha-ethyl-19-norprogesterone: synthesis and target tissue selective uptake of a progestin receptor based radiotracer for positron emission tomography” (J Med Chem, 1988):

How the values were obtained:
Rattus norvegicus [1] = test: Distribution in uterus/blood of in estrogen-primed immature rats after 1 hour iv administration (120 microCi); conditions: other tissue
Rattus norvegicus [2] = test: Distribution in muscle of iestrogen-primed immature rats after 1 hour iv administration (120 microCi); conditions: in vivo
Rattus norvegicus [3] = test: Distribution in fat of iestrogen-primed immature blocked rats after 1 hour iv administration (~/= 17 microg); conditions: in vivo
Rattus norvegicus [4] = test: Distribution in uterus/blood of estrogen-primed immature rats after 3 hour iv administration (120 micro Ci); conditions: in vivo
Rattus norvegicus [5] = test: Distribution in muscle of iestrogen-primed immature rats after 1 hour iv administration (13 microCi); conditions: in vivo
Rattus norvegicus [6] = test: Distribution in fat of iestrogen-primed immature rats after 1 hour iv administration; conditions: in vivo
Rattus norvegicus [7] = test: Distribution in liver of estrogen-primed immature rats after 1 hour iv administration (120 microCi); conditions: in vivo
Rattus norvegicus [8] = test: Distribution in ovaries of estrogen-primed immature rats after 1 hour iv administration (13 microCi); conditions: in vivo
Rattus norvegicus [9] = test: Distribution in ovaries of estrogen-primed immature blocked rats after 1 hour iv administration (~/= 17 microg); conditions: in vivo
Rattus norvegicus [10] = test: Distribution in uterus of in estrogen-primed immature rats after 3 hour iv administration; conditions: in vivo
Rattus norvegicus [11] = test: Distribution in lungs of estrogen-primed immature rats after 1 hour iv administration (13 microCi); conditions: in vivo
Rattus norvegicus [12] = test: Distribution in brain of estrogen-primed immature rats after 1 hour iv administration (13 microCi); conditions: in vivo
Rattus norvegicus [13] = test: Distribution in blood of estrogen-primed immature rats after 1 hour iv administration (120 microCi); conditions: in vivo
Rattus norvegicus [14] = test: Distribution in liver of estrogen-primed immature rats after 1 hour iv administration (13 microCi); conditions: in vivo
Rattus norvegicus [15] = test: Distribution in uterus/muscle of in estrogen-primed immature rats after 1 hour iv administration (120 microCi); conditions: in vivo
Rattus norvegicus [16] = test: Distribution in brain of estrogen-primed immature rats after 3 hour iv administration (120 micro Ci); conditions: in vivo
Rattus norvegicus [17] = test: Distribution in lungs of estrogen-primed immature blocked rats after 1 hour iv administration (~/= 17 microg); conditions: in vivo
Rattus norvegicus [18] = test: Distribution in brain of estrogen-primed immature blocked rats after 1 hour iv administration (~/= 17 microg); conditions: in vivo
Rattus norvegicus [19] = test: Distribution in bone of iestrogen-primed immature rats after 1 hour iv administration (13 microCi); conditions: in vivo
Rattus norvegicus [20] = test: Distribution in bone of iestrogen-primed immature rats after 1 hour iv administration (120 microCi); conditions: in vivo
Rattus norvegicus [21] = test: Distribution in fat of iestrogen-primed immature rats after 1 hour iv administration (13 microCi); conditions: in vivo
Rattus norvegicus [22] = test: Distribution in uterus/blood of in estrogen-primed immature rats after 1 hour iv administration (13 microCi); conditions: other tissue
Rattus norvegicus [23] = test: Distribution in liver of estrogen-primed immature rats after 3 hour iv administration (120 micro Ci); conditions: in vivo
Rattus norvegicus [24] = test: Distribution in uterus of in estrogen-primed immature rats after 1 hour iv administration (13 microCi); conditions: in vivo
Rattus norvegicus [25] = test: Distribution in blood of estrogen-primed immature blocked rats after 1 hour iv administration (~/= 17 microg); conditions: in vivo
Rattus norvegicus [26] = test: Distribution in ovaries of estrogen-primed immature rats after 1 hour iv administration (120 microCi); conditions: in vivo
Rattus norvegicus [27] = test: Distribution in kidney of estrogen-primed immature rats after 1 hour iv administration (120 microCi); conditions: in vivo
Rattus norvegicus [28] = test: Distribution in lungs of estrogen-primed immature rats after 3 hour iv administration (120 micro Ci); conditions: in vivo
Rattus norvegicus [29] = test: Distribution in kidney of estrogen-primed immature blocked rats after 1 hour iv administration (~/= 17 microg); conditions: in vivo
Rattus norvegicus [30] = test: Distribution in uterus of estrogen-primed immature blocked rats after 1 hour iv administration (~/= 17 microg); conditions: in vivo
Rattus norvegicus [31] = test: Distribution in muscle of iestrogen-primed immature blocked rats after 1 hour iv administration (~/= 17 microg); conditions: in vivo
Rattus norvegicus [32] = test: Distribution in fat of estrogen-primed immature rats after 3 hour iv administration (120 micro Ci); conditions: in vivo
Rattus norvegicus [33] = test: Distribution in blood of estrogen-primed immature rats after 1 hour iv administration (13 microCi); conditions: in vivo
Rattus norvegicus [34] = test: Distribution in muscle of iestrogen-primed immature rats after 3 hour iv administration (120 micro Ci); conditions: in vivo
Rattus norvegicus [35] = test: Distribution in kidney of estrogen-primed immature rats after 1 hour iv administration (13 microCi); conditions: in vivo
Rattus norvegicus [36] = test: Distribution in liver of estrogen-primed immature blocked rats after 1 hour iv administration (~/= 17 microg); conditions: in vivo
Rattus norvegicus [37] = test: Distribution in uterus/muscle of estrogen-primed immature blocked rats after 1 hour iv administration (~/= 17 microg); conditions: in vivo
Rattus norvegicus [38] = test: Distribution in bone of iestrogen-primed immature blocked rats after 1 hour iv administration (~/= 17 microg); conditions: in vivo
Rattus norvegicus [39] = test: Distribution in uterus/muscle of in estrogen-primed immature rats after 1 hour iv administration (13 microCi); conditions: in vivo
Rattus norvegicus [40] = test: Distribution in uterus/blood of estrogen-primed immature blocked rats after 1 hour iv administration (~/= 17 microg); conditions: other tissue
Rattus norvegicus [41] = test: Distribution in kidney of estrogen-primed immature rats after 3 hour iv administration (120 micro Ci); conditions: in vivo
Rattus norvegicus [42] = test: Distribution in uterus of estrogen-primed immature rats after 1 hour iv administration (120 microCi); conditions: in vivo
Rattus norvegicus [43] = test: Distribution in blood of estrogen-primed immature rats after 3 hour iv administration (120 micro Ci); conditions: in vivo
Rattus norvegicus [44] = test: Distribution in uterus/muscle of estrogen-primed immature rats after 3 hour iv administration (120 micro Ci); conditions: in vivo
Rattus norvegicus [45] = test: Distribution in lungs of estrogen-primed immature rats after 1 hour iv administration (120 microCi); conditions: in vivo
Rattus norvegicus [46] = test: Distribution in bone of estrogen-primed immature rats after 3 hour iv administration (120 micro Ci); conditions: in vivo
Rattus norvegicus [47] = test: Distribution in ovaries of estrogen-primed immature rats after 3 hour iv administration (120 micro Ci); conditions: in vivo
Rattus norvegicus [48] = test: Distribution in brain of estrogen-primed immature rats after 1 hour iv administration (120 microCi); conditions: in vivo

`CC[C@@H]1C[C@H]2[C@@H]3CCC4=CC(=O)CC[C@@H]4[C@H]3CC[C@]2(C)[C@H]1C(=O)C[18F]` gave a Distribution (Rattus norvegicus [1]) of 26.26%, a Distribution (Rattus norvegicus [2]) of 0.42% and a Distribution (Rattus norvegicus [3]) of 2.9%. For the same compound, the uterus/blood ratio (Rattus norvegicus [4]) was 71.2, the Distribution (Rattus norvegicus [5]) was 0.39% and the Distribution (Rattus norvegicus [6]) was 3.56%. It also gave a Distribution (Rattus norvegicus [7]) of 3.34%, a Distribution (Rattus norvegicus [8]) of 2.37% and a Distribution (Rattus norvegicus [9]) of 1%. It also gave a Distribution (Rattus norvegicus [10]) of 4.63%, a Distribution (Rattus norvegicus [11]) of 0.57% and a Distribution (Rattus norvegicus [12]) of 0.48%. For the same compound, the Distribution (Rattus norvegicus [13]) was 0.25%, the Distribution (Rattus norvegicus [14]) was 2.59% and the Distribution (Rattus norvegicus [15]) was 15.98%. The Distribution (Rattus norvegicus [16]) was 0.14%, the Distribution (Rattus norvegicus [17]) was 0.3% and the Distribution (Rattus norvegicus [18]) was 0.32%. For the same compound, the Distribution (Rattus norvegicus [19]) was 3.06%, the Distribution (Rattus norvegicus [20]) was 3.18% and the Distribution (Rattus norvegicus [21]) was 4.13%. For the same compound, the Distribution (Rattus norvegicus [22]) was 21.18%, the Distribution (Rattus norvegicus [23]) was 1.01% and the Distribution (Rattus norvegicus [24]) was 4.03%. The Distribution (Rattus norvegicus [25]) was 0.15%, the Distribution (Rattus norvegicus [26]) was 2.86% and the Distribution (Rattus norvegicus [27]) was 1.05%. It also gave a Distribution (Rattus norvegicus [28]) of 0.12%, a Distribution (Rattus norvegicus [29]) of 0.58% and a Distribution (Rattus norvegicus [30]) of 0.38%. The Distribution (Rattus norvegicus [31]) was 0.25%, the Distribution (Rattus norvegicus [32]) was 2.78% and the Distribution (Rattus norvegicus [33]) was 0.19%. It also gave a Distribution (Rattus norvegicus [34]) of 0.12%, a Distribution (Rattus norvegicus [35]) of 0.86% and a Distribution (Rattus norvegicus [36]) of 2.09%. For the same compound, the Distribution (Rattus norvegicus [37]) was 1.59%, the Distribution (Rattus norvegicus [38]) was 3.09% and the Distribution (Rattus norvegicus [39]) was 11.06%. It also gave a uterus/blood ratio (Rattus norvegicus [40]) of 2.53, a Distribution (Rattus norvegicus [41]) of 0.33% and a Distribution (Rattus norvegicus [42]) of 6.43%. For the same compound, the Distribution (Rattus norvegicus [43]) was 0.07%, the Distribution (Rattus norvegicus [44]) was 41.16% and the Distribution (Rattus norvegicus [45]) was 0.47%. The Distribution (Rattus norvegicus [46]) was 5.55%, the Distribution (Rattus norvegicus [47]) was 1.72% and the Distribution (Rattus norvegicus [48]) was 0.63%.
